Test results as given in the supplement of paper PMC10307832.

How the values were obtained:
Experiment in all cases: relative viability (nuclei count vs DMSO), 5 days (fraction); higher = more cells survive
[1] = compound: O=C(/C=C/c1ccccc1)NC(NC(=S)Nc1cccc2cccnc12)C(Cl)(Cl)Cl [Salubrinal] + O=C(c1cc(Cc2n[nH]c(=O)c3ccccc23)ccc1F)N1CCN(C(=O)C2CC2)CC1 [Olaparib] (partner 8 µM)
How it was run: (§1)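 Relative viability equals treated-well nuclei counts divided by vehicle-well nuclei counts. Counts came from 4× images of lung cancer cell lines grown in 1536-well plates for 5 days after pin-tool dosing on the day after seeding. Dosing used one drug alone or a fixed anchor-drug dose plus five library-drug doses (not always all listed) in √10 steps, and values are medians of duplicate plates.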

[2] = compound: Cc1ccc2nc(NCCN)c3ncc(C)n3c2c1 + Nc1nc2[nH]cc(CCc3ccc(C(=O)N[C@@H](CCC(=O)O)C(=O)O)cc3)c2c(=O)[nH]1 [Pemetrexed] (partner 0.2 µM)
How it was run: as §1

[3] = compound: O=C(/C=C/c1ccccc1)NC(NC(=S)Nc1cccc2cccnc12)C(Cl)(Cl)Cl [Salubrinal] + COc1cccc2cc(-c3nc([C@H]4CC[C@H](C(=O)O)CC4)n4ncnc(N)c34)[nH]c12 [OSI-027] (partner 0.5 µM)
How it was run: as §1

[4] = compound: O=C(/C=C/c1ccccc1)NC(NC(=S)Nc1cccc2cccnc12)C(Cl)(Cl)Cl [Salubrinal] + Nc1ncn([C@H]2C[C@H](O)[C@@H](CO)O2)c(=O)n1 [Decitabine] (partner 2 µM)
How it was run: as §1

Row | Cell Line | relative viability ([1]; first compound 0.08 µM) | relative viability ([1]; first compound 0.253 µM) | relative viability ([1]; first compound 0.8 µM) | relative viability ([1]; first compound 2.53 µM) | relative viability ([1]; first compound 8 µM) | relative viability ([2]; first compound 0.04 µM) | relative viability ([2]; first compound 0.1265 µM) | relative viability ([2]; first compound 0.4 µM) | relative viability ([2]; first compound 1.265 µM) | relative viability ([2]; first compound 4 µM) | relative viability ([3]; first compound 0.08 µM) | relative viability ([3]; first compound 0.253 µM) | relative viability ([3]; first compound 0.8 µM) | relative viability ([3]; first compound 2.53 µM) | relative viability ([3]; first compound 8 µM) | relative viability ([4]; first compound 0.08 µM) | relative viability ([4]; first compound 0.253 µM) | relative viability ([4]; first compound 0.8 µM) | relative viability ([4]; first compound 2.53 µM) | relative viability ([4]; first compound 8 µM)
1 | Calu-6 | 0.632 | 0.522 | 0.723 | 0.591 | 0.453 | – | – | – | – | – | – | – | – | – | – | – | – | – | – | –
2 | EBC-1 | 0.787 | 0.616 | 0.73 | 0.604 | 0.585 | – | – | – | – | – | – | – | – | – | – | – | – | – | – | –
3 | NCI-H1299 | 0.98 | 0.947 | 0.993 | 0.951 | 0.936 | – | – | – | – | – | – | – | – | – | – | – | – | – | – | –
4 | NCI-H2228 | 0.691 | – | 0.969 | 0.555 | 0.385 | 0.316 | 0.292 | 0.357 | 0.361 | 0.419 | 0.5 | 0.468 | 0.596 | 0.558 | 0.547 | – | – | – | – | –
5 | IA-LM | 0.842 | 0.83 | 0.935 | 0.704 | 0.72 | – | – | – | – | – | – | – | – | – | – | – | – | – | – | –
6 | NCI-H727 | 0.804 | 0.581 | 0.815 | 0.699 | 0.662 | – | – | – | – | – | 0.505 | 0.621 | 0.562 | 0.618 | 0.575 | 0.802 | 0.876 | 0.847 | 0.837 | 0.825
7 | NCI-H1623 | – | – | – | – | – | – | – | – | – | – | 0.482 | 0.387 | 0.544 | 0.386 | 0.44 | – | – | – | – | –
8 | CAL-12T | 0.7 | 0.711 | 0.751 | 0.725 | 0.648 | 1.42 | 1.13 | 1.15 | 1.04 | 1.03 | 0.444 | 0.541 | 0.606 | 0.542 | 0.454 | – | – | – | – | –
